Measured values from ChEMBL document CHEMBL5137031, “The structure-based design of peptidomimetic inhibitors against SARS-CoV-2 3C like protease as Potent anti-viral drug candidate” (Eur J Med Chem, 2022).

Experiments:
[1] = test system: SARS-CoV-2; assay: Antiviral activity against SARS-CoV-2 WIV04 infected in African green monkey Vero cells assessed as inhibition of viral proliferation measured at 24 hrs post infection by qRT-PCR analysis; assay type: functional, organism-based; conditions: Severe acute respiratory syndrome coronavirus 2, WIV04, Vero
[2] = target: Replicase polyprotein 1ab (Severe acute respiratory syndrome coronavirus 2, UniProt P0DTD1); assay: Inhibition of SARS-CoV-2 3CL protease expressed in Escherichia coli BL21 (DE3) cells assessed as change in relative fluorescence unit using MCA-TSAVLQSGFRK(DNP)M as substrate preincubated for 30 mins followed by substrate addition and measured after 2 hrs by microplate reader based FRET assay
[3] = test system: A549; assay: Cytotoxicity against human A549 cells assessed as inhibition of cell growth measured after 24 hrs by MTT assay; assay type: toxicity, cell-based; conditions: a549, 24 h
[4] = test system: SARS-CoV-2; assay: Antiviral activity against SARS-CoV-2 WIV04 infected in African green monkey Vero cells assessed as log reduction in viral RNA at 10 uM measured at 24 hrs post infection by qRT-PCR analysis; assay type: functional, Severe acute respiratory syndrome coronavirus 2
[5] = test system: Vero; assay: Cytotoxicity against African green monkey Vero cells assessed as reduction in cell viability incubated for 48 hrs by CCK8 assay; assay type: toxicity, cell-based; conditions: chlorocebus sabaeus

SMILES	EC50 [1]	IC50 [2]	Activity [3]	log(activity) [4]	Activity [5]
CC(C)[C@H](NC(=O)/C=C/c1ccccc1)C(=O)N[C@H](C=O)C[C@@H]1CCCNC1=O	> 3000 nM	6930 nM	Non-Toxic		
CC(C)C[C@H](NC(=O)/C=C/c1ccccc1)C(=O)N[C@H](C=O)C[C@@H]1CCCNC1=O	1510 nM	321 nM	Non-Toxic	2	Non-Toxic
O=C[C@H](C[C@@H]1CCNC1=O)NC(=O)[C@H](Cc1cccc(F)c1)NC(=O)c1cc2ccccc2[nH]1	360 nM	858 nM	Non-Toxic		
CC(C)C[C@H](NC(=O)[C@@H](NC(=O)c1cc2ccccc2[nH]1)C(C)C)C(=O)N[C@H](C=O)C[C@@H]1CCCNC1=O	> 3000 nM	295 nM	Non-Toxic		
CCC[C@H](NC(=O)/C=C/c1ccccc1)C(=O)N[C@@H](CC(C)C)C(=O)N[C@H](C=O)C[C@@H]1CCCNC1=O	> 3000 nM	543 nM	Non-Toxic		
CC(C)C[C@H](NC(=O)[C@@H](NC(=O)C1CCOCC1)C(C)C)C(=O)N[C@H](C=O)C[C@@H]1CCCNC1=O	> 3000 nM	285 nM	Non-Toxic		
C#CC[C@H](NC(=O)/C=C/c1ccccc1)C(=O)N[C@H](C=O)C[C@@H]1CCCNC1=O	> 3000 nM	3280 nM	Non-Toxic		
CC(C)C[C@H](NC(=O)[C@H](CC1CCCCC1)NC(=O)/C=C/c1ccccc1)C(=O)N[C@H](C=O)C[C@@H]1CCCNC1=O	1670 nM	1500 nM	Non-Toxic	2	Non-Toxic
CC(C)C[C@H](NC(=O)[C@@H](NC(=O)c1ccco1)C(C)C)C(=O)N[C@H](C=O)C[C@@H]1CCCNC1=O	> 3000 nM	234 nM	Non-Toxic		
Cc1ccc(/C=C/C(=O)N[C@H](C(=O)N[C@@H](CC(C)C)C(=O)N[C@H](C=O)C[C@@H]2CCCNC2=O)C(C)C)cc1	> 3000 nM	196 nM	Non-Toxic		
CC(C)C[C@H](NC(=O)[C@@H](NC(=O)C1CCCCC1)C(C)C)C(=O)N[C@H](C=O)C[C@@H]1CCCNC1=O	> 3000 nM	1410 nM	Non-Toxic		
CC(C)C[C@H](NC(=O)[C@@H](NC(=O)/C=C/c1ccc(-c2ccccc2)cc1)C(C)C)C(=O)N[C@H](C=O)C[C@@H]1CCCNC1=O	> 3000 nM	295 nM	Non-Toxic		
CC(C)C[C@H](NC(=O)[C@@H](NC(=O)c1cccnc1)C(C)C)C(=O)N[C@H](C=O)C[C@@H]1CCCNC1=O	> 3000 nM	640 nM	Non-Toxic		
C#CC[C@H](NC(=O)/C=C/c1ccccc1)C(=O)N[C@H](C=O)C[C@@H]1CCNC1=O	> 3000 nM	3890 nM	Non-Toxic		
CC(C)C[C@H](NC(=O)[C@@H](NC(=O)CCc1ccccc1)C(C)C)C(=O)N[C@H](C=O)C[C@@H]1CCCNC1=O	> 3000 nM	199 nM	Non-Toxic		
CC(C)C[C@H](NC(=O)[C@@H](NC(=O)c1ccc(C(F)(F)F)cc1)C(C)C)C(=O)N[C@H](C=O)C[C@@H]1CCCNC1=O	> 3000 nM	1430 nM	Non-Toxic		
CC(C)(C)[C@H](NC(=O)/C=C/c1ccccc1)C(=O)N[C@H](C=O)C[C@@H]1CCCNC1=O	> 3000 nM	3440 nM	Non-Toxic	2	
CC(C)C[C@H](NC(=O)[C@@H](NC(=O)/C=C/c1ccccc1)C(C)C)C(=O)N[C@H](C=O)C[C@@H]1CCCNC1=O	> 3000 nM	281 nM	Non-Toxic		
CC(C)C[C@H](NC(=O)[C@@H](NC(=O)c1ccc[nH]1)C(C)C)C(=O)N[C@H](C=O)C[C@@H]1CCCNC1=O	> 3000 nM	172 nM	Non-Toxic		
O=C[C@H](C[C@@H]1CCCNC1=O)NC(=O)[C@@H](NC(=O)/C=C/c1ccccc1)c1ccccc1	> 3000 nM	2040 nM	Non-Toxic		
CC(C)C[C@H](NC(=O)[C@@H](NC(=O)c1ccc(F)cc1)C(C)C)C(=O)N[C@H](C=O)C[C@@H]1CCCNC1=O	> 3000 nM	197 nM	Non-Toxic		
